This is an account of results in patent publication US10632064B2, “Topical regional neuro affective therapy with cannabinoid combination products” (Afgin Pharma, LLC, priority 2015, dated 2020).

Values joined by “and” are separate entries in the source; they are usually repeats but may differ in a detail not shown here. Equal values may be shown once. “Also recorded” adds a separate entry of the source.

Test [1] has as its system human patient with episodic severe post-operative neuralgic head pain. The test is described as follows: Example 6: topical cannabidiol 40 mg at the BONATH, post-operative neuralgic head pain, EEG. In kind it is in vivo. Here is the method:
The efficacy of a topical cannabidiol formulation was studied in a human patient (s/p resection right clival meningioma) suffering from episodic severe post-operative neuralgic head pain suffering from severe right-sided neuralgic head pain every 15-20 seconds. The patient was treated with cannabidiol 40 mg applied to the BONATH in a topical formulation. There was attenuation of associated focal EEG abnormalities. […] The neuralgic head pain was less severe by about 50% (frequency decreased to every 2-5 minutes).

Test [2] has as its system patients having acute and chronic neurological and psychiatric conditions. The test is described as follows: Example 12: topical CBD from crystalline powder (Table 6). It is filed as in vivo, human. The protocol: In Example 12, 19 patients having acute and chronic neurological and psychiatric conditions were treated with topical CBD at the back of the neck. The treatment comprised a dose of either 15 mg or 30 mg cannabinoid drugs, with the majority being CBD, the source of the CBD being CBD crystalline powder oil commercially available from CannaVest.

In test [3] the test system is human patients. Put plainly: Example 5: topical cannabidiol (CBD) formulation on the back of the neck, 40 mg dose, patient cases (Table 1). In kind it is in vivo. Here is the method:
The following patients were treated with a topical cannabidiol (CBD) formulation administered on the back of the neck on human patients at a 40 mg dose, as more specifically described below in Table 1: […]

The mark [4] stands for this setting: cannabidiol 40 mg topical at BONATH.

For the compound `C=C(C)[C@@H]1CCC(C)=C[C@H]1c1c(O)cc(CCCCC)cc1O` [CBD, cannabidiol], the “EEG after nuchal administration” value in test [1] (setting [4]) is given as “attenuation of the right temporal waves to a more normal state”. In test [1] (setting [4]), the “duration of EEG improvement and clinical benefit” value is given as “The EEG improvement lasted several minutes, but the clinical benefit lasted several hours”. Besides, in test [1] (setting [4]), the “neuralgic head pain less severe” value is given as “about 50%”. In addition, in test [1] (cannabidiol 40 mg topical, before every 15-20 seconds), the “frequency of neuralgic head pain after treatment (every ...)” value is 2 to 5 min. For the same compound, the “result in words (Table 6)” value in test [2] (0.75% topical CBD to neck and 1% to back) is 1% to back with patient feeling more alert; in test [2] (1% topical CBD, one patient per entry) it was “became more alert and spontaneous; also recorded: spasticity improved with better movement of; also recorded: improved pain within three minutes. Stated; also recorded: worked better than oil-based CBD they had; also recorded: focus, clearer thinking, and reduced anxiety”; in test [2] (1.5% topical (powdered) CBD cream), 1.5% topical CBD reduced neck tension and relieved neuropathic pain. Had been using and relieved anxiety and improved demeanor; in test [2] (2% topical CBD cream), “relieved back and lower extremity; also recorded: relieved neck pain and tension from”. Besides, the “time after application at which the effect was seen” value in test [2] (1% topical CBD to neck and back) is at most 1 min. Moreover, in test [2] (1% topical CBD, single patients), the pain decrease was 50% and pain 20% within a few minutes. and additional 30% from prior baseline. Moreover, in test [2] (2% topical CBD cream to back of neck, from 8 of 10, in few minutes), the “neck pain and tension level after treatment” value is 8 of 10 to 2 in few minutes. Further, the “time after topical CBD at which the effect was seen” value in test [3] (40 mg topical CBD on back of neck, single patients) is 10-15 minutes after nuchal and 15 minutes and within 15 minutes. and 10 minutes after topical CBD, and hand function within 15 minutes; and 20 minutes after 40 mg topical and 5 minutes after 40 mg topical and 5 minutes and 10-15 minutes after topical CBD,. Also, in test [3] (40 mg, person in panic attack, before 7-8 of 10), the “anxiety level after nuchal topical CBD” value is recorded as “anxiety from 7-8 of 10 to 4 of 10”. For the same compound, in test [3] (one dose of 40 mg topical CBD, Parkinson's patient with 10-12 freezing episodes per day), the “time without freezing episodes after one dose” value was “over 24 hours; also more”.
